From ChEMBL document CHEMBL1201862, “PubChem BioAssay data set” (2004)
The source made the active and inactive calls.

What was measured:
Cytochrome P450 2D6 = Cytochrome P450 2D6 (Homo sapiens, UniProt P10635);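 further: CYP2D6 member of a cytochrome P450 panel assay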
Coagulation factor XII = target: T1, Coagulation factor XII (Homo sapiens, UniProt P00748); type: functional;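 further: activated factor XIIa alpha cleaving a fluorogenic AMC peptide substrate; inhibitor potency from loss of enzyme activity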
T1 sequence (P00748 whole entry): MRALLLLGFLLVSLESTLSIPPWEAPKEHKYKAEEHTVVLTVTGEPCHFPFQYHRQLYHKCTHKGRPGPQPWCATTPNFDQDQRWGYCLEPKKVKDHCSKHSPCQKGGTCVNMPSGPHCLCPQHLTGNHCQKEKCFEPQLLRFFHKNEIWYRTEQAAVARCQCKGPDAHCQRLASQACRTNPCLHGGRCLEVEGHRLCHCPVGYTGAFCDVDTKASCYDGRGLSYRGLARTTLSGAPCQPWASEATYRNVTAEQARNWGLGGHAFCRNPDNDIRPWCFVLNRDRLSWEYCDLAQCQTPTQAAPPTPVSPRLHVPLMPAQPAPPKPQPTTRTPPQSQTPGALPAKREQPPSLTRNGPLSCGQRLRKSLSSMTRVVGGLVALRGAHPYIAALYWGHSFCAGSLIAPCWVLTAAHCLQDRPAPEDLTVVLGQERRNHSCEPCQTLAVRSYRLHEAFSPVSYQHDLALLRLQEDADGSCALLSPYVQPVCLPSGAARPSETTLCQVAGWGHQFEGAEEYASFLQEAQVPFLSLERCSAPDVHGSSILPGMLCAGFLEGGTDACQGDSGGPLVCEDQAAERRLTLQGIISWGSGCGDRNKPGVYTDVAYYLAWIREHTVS

Large T antigen = Large T antigen (Simian virus 40, UniProt P03070); type: functional, Betapolyomavirus macacae;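 further: Confirmatory-stage PubChem screen for compounds that inhibit SV40 T antigen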
Sequence of Large T antigen (P03070 whole entry): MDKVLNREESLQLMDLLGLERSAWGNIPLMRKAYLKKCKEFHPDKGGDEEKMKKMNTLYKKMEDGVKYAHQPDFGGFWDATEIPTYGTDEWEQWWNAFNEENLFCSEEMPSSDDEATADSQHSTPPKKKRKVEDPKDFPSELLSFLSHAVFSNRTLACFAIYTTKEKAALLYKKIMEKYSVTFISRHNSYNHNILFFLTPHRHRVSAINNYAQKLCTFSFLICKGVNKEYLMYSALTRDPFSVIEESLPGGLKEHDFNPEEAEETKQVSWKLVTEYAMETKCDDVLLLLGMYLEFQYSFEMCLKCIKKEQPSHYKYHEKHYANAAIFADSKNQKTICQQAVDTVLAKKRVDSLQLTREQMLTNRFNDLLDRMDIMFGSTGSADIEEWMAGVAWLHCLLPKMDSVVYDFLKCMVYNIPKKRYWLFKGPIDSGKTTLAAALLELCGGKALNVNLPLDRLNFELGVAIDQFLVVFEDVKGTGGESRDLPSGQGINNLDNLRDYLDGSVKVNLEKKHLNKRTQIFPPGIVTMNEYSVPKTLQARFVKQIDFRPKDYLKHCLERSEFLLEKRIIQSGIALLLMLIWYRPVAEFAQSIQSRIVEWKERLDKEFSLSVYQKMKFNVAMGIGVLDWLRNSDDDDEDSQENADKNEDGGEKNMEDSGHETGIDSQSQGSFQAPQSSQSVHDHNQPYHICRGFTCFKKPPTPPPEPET

SUMO-activating enzyme = SUMO-activating enzyme (Homo sapiens, UniProt Q9UBT2); assay: SUMOylation inhibitor hit validation, confirmation, SUMOylation inhibitor project, biochemical, AlphaScreen (AID 2018); type: functional
Sequence of SUMO-activating enzyme (Q9UBE0 whole entry): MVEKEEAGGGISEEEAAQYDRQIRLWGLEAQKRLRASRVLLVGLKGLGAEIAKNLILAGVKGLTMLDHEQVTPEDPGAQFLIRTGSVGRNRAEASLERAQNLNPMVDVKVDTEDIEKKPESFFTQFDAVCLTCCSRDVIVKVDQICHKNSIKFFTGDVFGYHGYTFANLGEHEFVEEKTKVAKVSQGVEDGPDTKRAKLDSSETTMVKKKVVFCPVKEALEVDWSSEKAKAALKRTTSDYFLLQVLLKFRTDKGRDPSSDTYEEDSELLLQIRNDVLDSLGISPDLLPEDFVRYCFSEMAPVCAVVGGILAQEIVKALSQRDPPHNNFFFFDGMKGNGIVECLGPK
Sequence of SUMO-activating enzyme (Q9UBT2 whole entry): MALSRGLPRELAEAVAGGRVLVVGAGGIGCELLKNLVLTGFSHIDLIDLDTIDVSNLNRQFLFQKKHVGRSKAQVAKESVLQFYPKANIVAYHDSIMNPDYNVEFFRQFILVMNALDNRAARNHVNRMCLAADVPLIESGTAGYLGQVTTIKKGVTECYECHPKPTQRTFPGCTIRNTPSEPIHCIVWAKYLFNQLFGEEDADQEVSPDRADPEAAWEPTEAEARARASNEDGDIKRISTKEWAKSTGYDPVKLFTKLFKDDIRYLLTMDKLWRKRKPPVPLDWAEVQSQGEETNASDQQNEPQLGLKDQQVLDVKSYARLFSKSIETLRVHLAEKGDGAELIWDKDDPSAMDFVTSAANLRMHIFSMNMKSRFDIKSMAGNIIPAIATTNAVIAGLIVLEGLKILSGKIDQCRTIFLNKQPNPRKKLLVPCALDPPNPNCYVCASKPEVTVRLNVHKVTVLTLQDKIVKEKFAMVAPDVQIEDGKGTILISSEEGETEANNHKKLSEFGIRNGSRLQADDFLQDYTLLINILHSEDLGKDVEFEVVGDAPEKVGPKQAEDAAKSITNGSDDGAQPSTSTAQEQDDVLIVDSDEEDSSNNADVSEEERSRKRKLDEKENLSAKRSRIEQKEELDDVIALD

[1] = cytotoxicity in HPDE-C7 cells, cell-based, fluorescence, HTS (AID 430); type: functional; settings: Homo sapiens
[2] = HepG2 cell cytotoxicity, dose response, cytotoxicity control for non-replicating M. tuberculosis project (AID 489018); type: functional; settings: Mycobacterium tuberculosis
[3] = cytotoxicity in KRAS-transformed pancreatic duct cells, primary screen, cell-based, fluorescence, HTS (AID 431); type: functional; settings: Homo sapiens;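 further: cell line used: HPDE-C7K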
[4] = target: T2, Microphthalmia-associated transcription factor (Homo sapiens, UniProt O75030); assay: TRPM1 promoter luciferase signal decrease, dose response, MITF inhibitor project, cell-based, SK-MEL-5, cherry-picked, set 3 (AID 493073); type: functional
T2 sequence (O75030 whole entry): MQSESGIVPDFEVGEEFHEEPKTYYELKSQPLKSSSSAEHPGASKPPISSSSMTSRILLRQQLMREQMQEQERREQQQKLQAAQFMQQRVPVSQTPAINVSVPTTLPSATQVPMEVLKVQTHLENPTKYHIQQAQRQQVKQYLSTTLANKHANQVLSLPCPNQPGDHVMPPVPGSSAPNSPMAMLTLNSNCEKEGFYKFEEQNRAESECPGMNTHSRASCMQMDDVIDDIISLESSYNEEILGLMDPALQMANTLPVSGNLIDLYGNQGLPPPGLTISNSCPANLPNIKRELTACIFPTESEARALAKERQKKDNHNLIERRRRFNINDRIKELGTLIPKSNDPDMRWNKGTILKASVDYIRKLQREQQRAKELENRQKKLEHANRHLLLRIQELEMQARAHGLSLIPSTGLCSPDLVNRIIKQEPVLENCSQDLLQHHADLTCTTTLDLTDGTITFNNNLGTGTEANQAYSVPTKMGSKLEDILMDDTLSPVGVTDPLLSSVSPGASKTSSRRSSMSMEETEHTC

cells = type: functional
[5] = cytotoxicity toward DRD oncogenic fibroblasts, dose response, cell-based, non-viral oncogenic, luminescence (AID 1934); type: functional; settings: Homo sapiens
Paired box protein Pax-8 = Paired box protein Pax-8 (Homo sapiens, UniProt Q06710); assay: inhibitors of PAX8-driven TPO luciferase reporter, dose response, RMG-I cells, cherry-pick (AID 687027); type: functional, cell-based;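 further: luciferase reporter driven by Pax8 target thyroperoxidase promoter measured by SteadyGlo luminescence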
Sequence of Paired box protein Pax-8 (Q06710 whole entry): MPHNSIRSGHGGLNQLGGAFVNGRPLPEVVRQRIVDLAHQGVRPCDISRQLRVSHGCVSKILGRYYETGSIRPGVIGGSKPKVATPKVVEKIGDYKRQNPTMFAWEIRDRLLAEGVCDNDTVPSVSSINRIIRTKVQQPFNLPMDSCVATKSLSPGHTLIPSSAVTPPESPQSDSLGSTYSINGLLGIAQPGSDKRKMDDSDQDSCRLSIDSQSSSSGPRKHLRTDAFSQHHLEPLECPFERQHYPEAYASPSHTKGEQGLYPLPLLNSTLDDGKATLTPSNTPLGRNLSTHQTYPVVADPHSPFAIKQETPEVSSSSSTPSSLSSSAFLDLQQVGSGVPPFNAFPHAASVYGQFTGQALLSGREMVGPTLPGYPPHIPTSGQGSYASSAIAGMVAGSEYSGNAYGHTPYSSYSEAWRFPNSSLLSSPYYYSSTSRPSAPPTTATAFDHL

[6] = Vero E6 cell cytotoxicity, dose response, cytotoxicity control for non-replicating M. tuberculosis project, secondary assay (AID 492998); type: functional, VeroE6; settings: Vero C1008
BJ [7] = assay: cytotoxicity toward BJ-TERT-LT-ST fibroblasts, dose response, cell-based, RAS-independent, luminescence (AID 1935); type: functional; settings: Homo sapiens;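 further: BJ fibroblasts immortalized with TERT plus LT and ST oncogenes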
[8] = microbe, parasite or virus in culture; type: functional; settings: Mycobacterium tuberculosis
[9] = Luminescence Cell-Based Dose Response HTS to Identify Activators of Luciferase Translation or Activity in H4 […] Cells. [Related pubchem assays: 1829 (Project Summary), 1814 (Primary HTS)]; type: functional
BJ [10] = assay: cells; type: functional, cell-based; settings: Homo sapiens
H4 = assay: Luminescence Cell-Based Dose Response HTS to Identify Activators of 5'UTR Stem-Loop Driven Prion Protein mRNA Translation in H4 Neuroglioblastoma Cells. [Related pubchem assays: 1829 (Project Summary), 1814 (Primary HTS)]; type: functional; settings: Homo sapiens
BJ [11] = assay: cytotoxicity toward BJ-TERT fibroblasts, dose response, cell-based, RAS-independent, luminescence (AID 1933); type: functional; settings: Homo sapiens
[12] = THP-1 cell cytotoxicity, dose response, cytotoxicity control for non-replicating M. tuberculosis project (AID 489025); type: functional
[13] = Luminescence Cell-Based Dose Confirmation HTS to Identify Activators of 5'UTR Stem-Loop Driven Alpha-Synuclein mRNA Translation in H4 Neuroglioblastoma Cells. [Related pubchem assays: 1829 (Project Summary), 1814 (Primary HTS)]; type: functional
[14] = target: Peroxisome proliferator-activated receptor gamma/Nuclear receptor coactivator 1 (Homo sapiens, UniProt P37231); assay: TR-FRET dose response biochemical High Throughput Screening assay for agonists of the steroid receptor coactivator 1 (SRC-1) recruitment by the peroxisome proliferator-activated receptor gamma (PPAR gamma): non-selective agonists. [Related pubchem assays (depositor defined):AID1300, AID1808, AID504735, AID631]; type: protein assay
[15] = target: Peroxisome proliferator-activated receptor gamma/Nuclear receptor coactivator 2 (Homo sapiens, UniProt P37231); assay: (§1) TR-FRET dose response biochemical High Throughput Screening assay for agonists of the steroid receptor coactivator 2 (SRC-2) recruitment by the peroxisome proliferator-activated receptor gamma (PPAR gamma): non-selective agonists. [Related pubchem assays: 1297, 1032 ]; type: functional
[16] = target: Peroxisome proliferator-activated receptor gamma/Nuclear receptor coactivator 3 (Homo sapiens, UniProt P37231); assay: as §1, with “3 (SRC-3)” for “2 (SRC-2)”, “1301 (Confirmation screen.), 1048 (Primary screen.)]” for “1297, 1032 ]”; type: functional
Sequence of Peroxisome proliferator-activated receptor gamma/Nuclear receptor coactivator 3 (P37231 whole entry): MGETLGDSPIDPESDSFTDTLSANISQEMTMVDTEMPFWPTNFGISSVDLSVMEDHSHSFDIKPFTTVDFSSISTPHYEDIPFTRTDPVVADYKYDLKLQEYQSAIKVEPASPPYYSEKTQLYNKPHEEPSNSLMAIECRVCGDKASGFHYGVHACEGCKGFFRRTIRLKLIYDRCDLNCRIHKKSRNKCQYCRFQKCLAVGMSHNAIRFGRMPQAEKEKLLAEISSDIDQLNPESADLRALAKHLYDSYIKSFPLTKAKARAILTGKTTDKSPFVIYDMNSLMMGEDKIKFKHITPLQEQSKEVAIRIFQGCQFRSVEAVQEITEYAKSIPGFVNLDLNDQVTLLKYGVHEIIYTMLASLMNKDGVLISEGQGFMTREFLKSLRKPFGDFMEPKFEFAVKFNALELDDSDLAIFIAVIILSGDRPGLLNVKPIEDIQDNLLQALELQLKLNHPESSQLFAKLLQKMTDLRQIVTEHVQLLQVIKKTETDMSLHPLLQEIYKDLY
Sequence of Peroxisome proliferator-activated receptor gamma/Nuclear receptor coactivator 3 (Q9Y6Q9 whole entry, further chain): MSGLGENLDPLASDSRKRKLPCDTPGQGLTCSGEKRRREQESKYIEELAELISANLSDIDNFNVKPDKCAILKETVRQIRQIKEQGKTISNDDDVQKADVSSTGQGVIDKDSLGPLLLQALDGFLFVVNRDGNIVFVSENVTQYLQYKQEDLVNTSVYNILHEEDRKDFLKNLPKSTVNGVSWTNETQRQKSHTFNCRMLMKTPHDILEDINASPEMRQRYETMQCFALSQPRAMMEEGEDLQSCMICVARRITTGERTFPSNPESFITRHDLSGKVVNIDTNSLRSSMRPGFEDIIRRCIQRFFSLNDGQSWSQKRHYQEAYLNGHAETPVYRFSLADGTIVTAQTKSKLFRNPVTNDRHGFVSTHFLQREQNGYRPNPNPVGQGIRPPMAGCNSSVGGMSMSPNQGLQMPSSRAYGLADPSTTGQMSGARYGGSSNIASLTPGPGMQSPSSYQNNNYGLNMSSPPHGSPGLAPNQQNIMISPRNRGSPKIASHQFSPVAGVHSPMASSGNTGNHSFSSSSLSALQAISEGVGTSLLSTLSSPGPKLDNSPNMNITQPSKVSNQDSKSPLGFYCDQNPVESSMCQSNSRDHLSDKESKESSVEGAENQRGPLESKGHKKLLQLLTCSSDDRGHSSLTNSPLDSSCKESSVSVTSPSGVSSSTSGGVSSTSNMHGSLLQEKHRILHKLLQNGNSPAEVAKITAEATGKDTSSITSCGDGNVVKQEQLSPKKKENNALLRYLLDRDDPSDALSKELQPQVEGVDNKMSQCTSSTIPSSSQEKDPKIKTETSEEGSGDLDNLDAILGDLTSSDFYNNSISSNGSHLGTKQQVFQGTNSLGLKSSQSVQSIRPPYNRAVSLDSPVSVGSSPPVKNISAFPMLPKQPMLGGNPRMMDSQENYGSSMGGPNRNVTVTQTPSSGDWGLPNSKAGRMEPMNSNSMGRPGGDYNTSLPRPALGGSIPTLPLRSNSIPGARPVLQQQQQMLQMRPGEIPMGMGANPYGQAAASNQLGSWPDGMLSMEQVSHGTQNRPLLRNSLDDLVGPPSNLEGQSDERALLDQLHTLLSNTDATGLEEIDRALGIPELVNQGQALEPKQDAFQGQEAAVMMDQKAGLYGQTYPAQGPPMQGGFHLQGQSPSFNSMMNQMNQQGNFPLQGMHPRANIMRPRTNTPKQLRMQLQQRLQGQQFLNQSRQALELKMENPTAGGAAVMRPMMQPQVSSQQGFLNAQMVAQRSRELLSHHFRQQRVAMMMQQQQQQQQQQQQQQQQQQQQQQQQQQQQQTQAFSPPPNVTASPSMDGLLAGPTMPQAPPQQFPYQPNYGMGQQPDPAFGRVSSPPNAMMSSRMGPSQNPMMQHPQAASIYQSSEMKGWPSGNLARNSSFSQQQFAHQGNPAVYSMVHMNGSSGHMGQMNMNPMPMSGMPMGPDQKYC

Sequence of Cytochrome P450 2D6 (P10635 whole entry): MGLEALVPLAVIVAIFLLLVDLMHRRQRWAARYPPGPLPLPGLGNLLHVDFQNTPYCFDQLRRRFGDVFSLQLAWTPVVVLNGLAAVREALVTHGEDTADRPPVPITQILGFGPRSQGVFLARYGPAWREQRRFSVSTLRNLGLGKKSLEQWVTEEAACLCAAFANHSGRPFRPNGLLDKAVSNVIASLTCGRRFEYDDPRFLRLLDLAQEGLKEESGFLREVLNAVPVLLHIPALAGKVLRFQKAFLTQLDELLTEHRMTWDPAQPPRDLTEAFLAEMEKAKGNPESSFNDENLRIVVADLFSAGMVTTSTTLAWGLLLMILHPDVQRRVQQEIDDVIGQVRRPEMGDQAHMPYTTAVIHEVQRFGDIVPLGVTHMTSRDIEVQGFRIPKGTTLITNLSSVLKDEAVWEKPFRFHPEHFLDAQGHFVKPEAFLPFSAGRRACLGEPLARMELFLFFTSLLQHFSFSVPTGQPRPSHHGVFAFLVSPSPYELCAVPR

Question: For `CCOC(=O)C[n+]1c(C)sc2ccc(OC)cc21`, which AC50 (Cytochrome P450 2D6) is on record?
Answer: 12.6 µM (inconclusive)

Question: What about the IC50 (Coagulation factor XII) of the same molecule?
Answer: > 50 µM (inactive)

Question: What about the IC50 (Large T antigen) of the same molecule?
Answer: 22.1 µM (active)

Question: For `CC(=O)Nc1ccc(S(=O)(=O)Nc2nc3ccccc3nc2Nc2ccc3ccccc3c2)cc1`, which IC50 (SUMO-activating enzyme) is on record?
Answer: > 100 µM (inactive)

Question: Which EC50 [1] does the source give for `Nc1nnnn1/N=C/C(Br)=C/c1ccccc1` here?
Answer: 2.37 µM (active)

Question: What about the CC50 [2] of the same molecule?
Answer: 10 µM (active)

Question: What about the EC50 [3] of the same molecule?
Answer: 2.94 µM (active)

Question: And the AC50 [4]?
Answer: 5.44 µM (active)

Question: What about the IC50 (cells) of the same molecule?
Answer: 5.76 µM (active)

Question: And the EC50 [5]?
Answer: 3.95 µM (active)

Question: And the AC50 (Paired box protein Pax-8)?
Answer: 1.36 µM (active)

Question: What about the CC50 [6] of the same molecule?
Answer: 5.79 µM (active)

Question: And the EC50 (BJ [7])?
Answer: > 38 µM (inconclusive)

Question: What about the CC50 [8] of the same molecule?
Answer: 6.31 µM (active)

Question: And the EC50 [9]?
Answer: > 120 µM (not active)

Question: What about the EC50 (BJ [10]) of the same molecule?
Answer: > 150 µM (inconclusive)

Question: What about the EC50 (H4) of the same molecule?
Answer: > 120 µM (not active)

Question: And the EC50 (BJ [11])?
Answer: 5.12 µM (inconclusive)

Question: What about the CC50 [12] of the same molecule?
Answer: 5.96 µM (active)

Question: What about the EC50 [13] of the same molecule?
Answer: 17.4 µM (active)

Question: With `CCOc1ccc(S(=O)(=O)N(C)c2ccc(OCC(=O)Nc3nc(-c4cc(OC)ccc4OC)cs3)cc2)cc1` as the molecule, how does the EC50 [14] read?
Answer: 36.5 µM (inactive)

Question: What about the EC50 [15] of the same molecule?
Answer: 34.8 µM (not active)

Question: What about the EC50 [16] of the same molecule?
Answer: > 79.4 µM (not active)

Question: Which IC50 (Coagulation factor XII) does the source give for `COc1ccccc1CC(=O)NCc1csc(-c2cccs2)n1` here?
Answer: > 50 µM (inactive)
